From patent US20120115877A1, “Facially Amphiphilic Compounds, Compositions, And Uses Thereof In Treating Cancer” (POLYMEDIX, INC., priority 2010, published 2012)

Tests used:
Type in all cases: cell-based, human
Conditions in all cases: 10 μM
PC-3 = assay: NCI-60 screen, Prostate Cancer
Description: (§1) Several compounds were tested at single concentrations (10 μM) against 59 different human tumor cell lines, representing leukemia, melanoma and cancers of the lung, colon, brain, ovary, breast, prostate, and kidney (see, Table 3). The human tumor cell lines of the cancer screening panel were grown in RPMI 1640 medium containing 5% fetal bovine serum and 2 mM L-glutamine. For a typical screening experiment, cells were inoculated into 96 well microtiter plates in 100 μL at plating densities ranging from 5,000 to 40,000 cells/well depending on the doubling time of individual cell lines. After cell inoculation, the microtiter plates were incubated at 37° C., 5% CO2, 95% air and 100% relative humidity for 24 hours prior to addition of the compounds.
(§2) After 24 hours, two plates of each cell line were fixed in situ with TCA, to represent a measurement of the cell population for each cell line at the time of drug addition (Tz). Compounds were solubilized in dimethyl sulfoxide at 400-fold the desired final maximum test concentration and stored frozen prior to use. At the time of drug addition, an aliquot of frozen concentrate was thawed and diluted to twice the desired final maximum test concentration with complete medium containing 50 μg/ml gentamicin. Additional four, 10-fold or ½ log serial dilutions were made to provide a total of five compound concentrations plus control. Aliquots of 100 μl of these different drug dilutions were added to the appropriate microtiter wells already containing 100 μl of medium, resulting in the required final compound concentrations.
(§3) Following drug addition, the plates were incubated for an additional 48 hours at 37° C., 5% CO2, 95% air, and 100% relative humidity. For adherent cells, the assay was terminated by the addition of cold TCA. Cells were fixed in situ by the gentle addition of 50 μl of cold 50% (w/v) TCA (final concentration, 10% TCA) and incubated for 60 minutes at 4° C. The supernatant was discarded, and the plates were washed five times with tap water and air dried. Sulforhodamine B (SRB) solution (100 μl) at 0.4% (w/v) in 1% acetic acid was added to each well, and plates were incubated for 10 minutes at room temperature. After staining, unbound dye was removed by washing five times with 1% acetic acid and the plates were air dried. Bound stain was subsequently solubilized with 10 mM trizma base, and the absorbance was read on an automated plate reader at a wavelength of 515 nm. For suspension cells, the methodology was the same except that the assay was terminated by fixing settled cells at the bottom of the wells by gently adding 50 μl of 80% TCA (final concentration, 16% TCA). Using the seven absorbance measurements (time zero, (Tz), control growth, (C), and test growth in the presence of drug at the five concentration levels (Ti)), the percentage growth was calculated at each of the compound concentrations levels. Percentage growth inhibition was calculated as:
(§4) [(Ti−Tz)/(C−Tz)]×100 for concentrations for which Ti>/=Tz
(§5) [(Ti−Tz)/Tz]×100 for concentrations for which Ti<Tz.
(§6) Three dose response parameters were calculated for each compound. Growth inhibition of 50% (GI50) was calculated from [(Ti−Tz)/(C−Tz)]×100=50, which is the compound concentration resulting in a 50% reduction in the net protein increase (as measured by SRB staining) in control cells during the compound incubation. The compound concentration resulting in total growth inhibition (TGI) was calculated from Ti=Tz. The LC50 (concentration of compound resulting in a 50% reduction in the measured protein at the end of the compound treatment as compared to that at the beginning) indicating a net loss of cells following treatment was calculated from [(Ti−Tz)/Tz]×100=−50. Values were calculated for each of these three parameters if the level of activity was reached; however, if the effect was not reached or was exceeded, the value for that parameter was expressed as greater or less than the maximum or minimum concentration tested.

DU-145 = assay: NCI-60 screen, Prostate Cancer
Description: as §1, §2, §3, §4, §5, §6

MDA-MB-468 = assay: NCI-60 screen, Breast Cancer
Description: as §1, §2, §3, §4, §5, §6

T-47D = assay: NCI-60 screen, Breast Cancer
Description: as §1, §2, §3, §4, §5, §6

MCF7 = assay: NCI-60 screen, Breast Cancer
Description: as §1, §2, §3, §4, §5, §6

SF-539 = assay: NCI-60 screen, CNS Cancer
Description: as §1, §2, §3, §4, §5, §6

SF-268 = assay: NCI-60 screen, CNS Cancer
Description: as §1, §2, §3, §4, §5, §6

SNB-75 = assay: NCI-60 screen, CNS Cancer
Description: as §1, §2, §3, §4, §5, §6

SNB-19 = assay: NCI-60 screen, CNS Cancer
Description: as §1, §2, §3, §4, §5, §6

U251 = assay: NCI-60 screen, CNS Cancer
Description: as §1, §2, §3, §4, §5, §6

SF-295 = assay: NCI-60 screen, CNS Cancer
Description: as §1, §2, §3, §4, §5, §6

EKVX = assay: NCI-60 screen, Non-Small Cell Lung Cancer
Description: as §1, §2, §3, §4, §5, §6

NCI-H322M = assay: NCI-60 screen, Non-Small Cell Lung Cancer
Description: as §1, §2, §3, §4, §5, §6

NCI-H23 = assay: NCI-60 screen, Non-Small Cell Lung Cancer
Description: as §1, §2, §3, §4, §5, §6

NCI-H460 = assay: NCI-60 screen, Non-Small Cell Lung Cancer
Description: as §1, §2, §3, §4, §5, §6

A549/ATCC = assay: NCI-60 screen, Non-Small Cell Lung Cancer
Description: as §1, §2, §3, §4, §5, §6

HOP-92 = assay: NCI-60 screen, Non-Small Cell Lung Cancer
Description: as §1, §2, §3, §4, §5, §6

NCI-H226 = assay: NCI-60 screen, Non-Small Cell Lung Cancer
Description: as §1, §2, §3, §4, §5, §6

NCI-H522 = assay: NCI-60 screen, Non-Small Cell Lung Cancer
Description: as §1, §2, §3, §4, §5, §6

HOP-62 = assay: NCI-60 screen, Non-Small Cell Lung Cancer
Description: as §1, §2, §3, §4, §5, §6

HCC-2998 = assay: NCI-60 screen, Colon Cancer
Description: as §1, §2, §3, §4, §5, §6

COLO 205 = assay: NCI-60 screen, Colon Cancer
Description: as §1, §2, §3, §4, §5, §6

SW-620 = assay: NCI-60 screen, Colon Cancer
Description: as §1, §2, §3, §4, §5, §6

HCT-116 = assay: NCI-60 screen, Colon Cancer
Description: as §1, §2, §3, §4, §5, §6

HCT-15 = assay: NCI-60 screen, Colon Cancer
Description: as §1, §2, §3, §4, §5, §6

KM12 = assay: NCI-60 screen, Colon Cancer
Description: as §1, §2, §3, §4, §5, §6

HT29 = assay: NCI-60 screen, Colon Cancer
Description: as §1, §2, §3, §4, §5, §6

| SMILES | Percent Growth (PC-3) [%] | Percent Growth (DU-145) [%] | Percent Growth (MDA-MB-468) [%] | Percent Growth (T-47D) [%] | Percent Growth (MCF7) [%] | Percent Growth (SF-539) [%] | Percent Growth (SF-268) [%] | Percent Growth (SNB-75) [%] | Percent Growth (SNB-19) [%] | Percent Growth (U251) [%] | Percent Growth (SF-295) [%] | Percent Growth (EKVX) [%] | Percent Growth (NCI-H322M) [%] | Percent Growth (NCI-H23) [%] | Percent Growth (NCI-H460) [%] | Percent Growth (A549/ATCC) [%] | Percent Growth (HOP-92) [%] | Percent Growth (NCI-H226) [%] | Percent Growth (NCI-H522) [%] | Percent Growth (HOP-62) [%] | other results |
| --- | --- | --- | --- | --- | --- | --- | --- | --- | --- | --- | --- | --- | --- | --- | --- | --- | --- | --- | --- | --- | --- |
| NCCCc1cccc(-c2ccc3sc4ccc(-c5cccc(CCCN)c5)cc4c3c2)c1 [Compound D] | 73.6 | 55.35 | 17.63 | 90.75 | −59.63 | 98.34 | 73.4 | 71.15 | 79.89 | 59.7 | 87.17 | 98.18 | 107 | 100.6 | 69.57 | 72.71 | 78.26 | 110.1 | 10.75 | 90.64 | Percent Growth (HCC-2998): 93.27%; Percent Growth (COLO 205): 31.52%; Percent Growth (SW-620): 15.48%; Percent Growth (HCT-116): 0.5127%; Percent Growth (HCT-15): 88.15%; Percent Growth (KM12): 42.09%; Percent Growth (HT29): 21.31% |
| c1cc(-c2ccc3sc4ccc(-c5ccnc(N6CCNCC6)c5)cc4c3c2)cc(N2CCNCC2)n1 [Compound E] | −85.11 | −97.96 | −82.28 | −12.27 | −89.85 | 14.26 | −37.05 | −94.79 | −43.97 | −85.72 | −50.65 | 22.56 | −53.02 | 52.19 | −78.46 | −77.24 | 32.76 | 39.89 | −93.93 | −80.18 | Percent Growth (HCC-2998): −9.443%; Percent Growth (COLO 205): −59.52%; Percent Growth (SW-620): −87.3%; Percent Growth (HCT-116): −48.52%; Percent Growth (HCT-15): −54.01%; Percent Growth (KM12): −87.84%; Percent Growth (HT29): −87.5% |
| NCCSc1cc(SCCN)c(C(F)(F)F)cc1NC(=O)c1cc(C(=O)Nc2cc(C(F)(F)F)c(SCCN)cc2SCCN)ncn1 [Compound F] | 46.61 | 51.97 | −78.28 | 34.11 | −59.97 | 65.73 | 32.42 | −20.24 | 49.54 | 23.67 | 57.66 | 75.72 | 55.48 | 60.86 | 47.73 | 15.81 | −24.05 | 66.85 | −2.5 | 29.35 | Percent Growth (HCC-2998): 31.93%; Percent Growth (COLO 205): 126%; Percent Growth (SW-620): 18.57%; Percent Growth (HCT-116): 32.41%; Percent Growth (HCT-15): 62.31%; Percent Growth (KM12): 7.63%; Percent Growth (HT29): 56.34% |
